{"source": "patent US8022051B2", "about": "“Composition for protection and improvement of skin, or reinforcing skin barrier function comprising phosphatidylserine” (Doosan Corporation, priority 2004, dated 2011)", "key": {"[1]": {"test_system": "TPA-induced ear inflammation in CD-1 mouse", "assay": "Alleviation of skin damage (inflammatory response) due to TPA in mouse ear", "type": "in vivo", "details": "TPA 0.03%; applied 30 μl per cm^2 at 45 minutes and 4 hours after induction; phosphatidylserine 0.5%, clofibrate 1 mM, Wy14643 1 mM; FIG. 2", "procedure": "In order to examine a skin damage (inflammatory response)-alleviating effect of the phosphatidylserine of the invention, which damage results from skin inflammation-inducing material, a following experiment was performed in accordance with a method used by Sheu et. al. (The Journal of Investigate Dermatology, 118, pp 94-101, 2002).\nFirst, CD-1 mouse (male & female, 6-8 weeks, Charles River, US) was used as an experimental object. TPA (12-0-tetradecanoylphorbol-13-acetate) 0.03% (wt./vol.; in acetone) solution 10 μl, which was skin inflammation-inducing material, was treated to inner and outer parts of both ears of the experimental animal. The ear was thickened due to TPA and there occurred an inflammatory response. Then, clofibrate (1 mM) and Wy14643 (1 mM) as already-known positive control group, which are agonists of PPAR-a, and the 0.5% phosphatidylserine containing aqueous solution used as the Example 1 as an experimental material were applied to both ears in an amount of 30 μl per cm^2 at times of 45 minutes and 4 hours after the inflammation was induced. After that, the treated parts of the ears were subject to a biopsy, and the biopsy parts were fixed to 4% formaldehyde and then subject to Hematoxylene & Eosin (E&H) staining. The tissue slide stained with H&E was magnified to 100 folds to check the inflammation alleviation."}, "[2]": {"test_system": "skin keratinocyte cell line (HaCaT) and normal human keratinocytes", "assay": "Reduction of inflammatory response induced by ultraviolet irradiation in skin keratinocytes (ELISA of TNF-a, IL-6, IL-1alpha)", "type": "cell-based", "details": "25 mJ/cm^2 UVB; phosphatidylserine 20 and 40 μM, WY-14643 200 μM; 24 hours; FIG. 3", "procedure": "In order to examine an inflammatory response-reducing effect of the phosphatidylserine of the invention in the skin keratinocyte, which response results from the ultraviolet irradiation, a following experiment was performed in accordance with a method disclosed in the literature (Stefan et. al., The Journal of Investigate Dermatology, 117, pp 1430-1436, 2001).\nFirst, the skin keratinocyte cell line (HaCaT, a gift from Yonsei univeritym, Korea) was seeded to a 35 mm^2 of cell culture dish in an amount of 3×10^5 cells/dish and then cultured for a day. Next day, the culture medium was removed and the cell was washed with 1× phosphate-buffered saline (PBS), 700 μl of 1×PBS was added to each of the dishes, it was irradiated 25 mJ/cm^2 UVB and then PBS was removed. […] Next day, the culture medium was collected and then amounts of TNF-a and IL-6 which have been known as inflammatory cytokines were measured with an enzyme-linked immunosorbent assay (ELISA) method. In addition, in order to check that there occurred a similar inflammatory response reducing effect also in the normal human skin keratinocyte, an experiment was performed in the above-mentioned manner using normal human keratinocytes (a gift from Dong-guk University) instead of the HaCaT cell line and then an amount of IL-1alpha secreted to the culture medium was measured with the ELISA."}, "[3]": {"test_system": "skin keratinocyte cell line (HaCaT)", "assay": "Protection of skin keratinocytes from ultraviolet injury (MTT assay)", "type": "cell-based, human", "details": "25 mJ/cm^2 UVB; phosphatidylserine 20 and 40 μM, WY-14643 200 μM; 24 hours; FIG. 4"}, "skin": {"test_system": "skin", "details": "applied to the skin; Sheu et al., J Invest Dermatol 118, 94-101, 2002; cited from earlier work"}, "[4]": {"test_system": "skin keratinocytes (HaCaT)", "assay": "Protection from ROS (hydrogen peroxide) in skin keratinocytes (MTT assay)", "type": "cell-based", "details": "phosphatidylserine 25 μM, vitamin C 100 μM, vitamin E 100 μM, 24 hours; then 1 mM H2O2 about 1-1.5 hours; FIG. 8", "procedure": "In order to measure an effect of protecting the skin from the ROS in the keratinocyte by the phosphatidylserine of the invention, a following experiment was performed.\nFirst, the skin keratinocytes (HaCaT) were seeded to the 24-well plate in an amount of 5×10^4 cells/well. Next day, it was treated with 25 μM phosphatidylserine aqueous solution (Doosan Biotech, Korea) (phosphatidylserine-treated group), 100 μM vitamin C (ascorbic acid-treated group) and 100 μM vitamin E (a-tocopherol-treated group) as the positive control group and then cultured for 24 hours. Next day, it was treated with 1 mM hydrogen peroxide (H2O2) and then cultured for about 1˜1.5 hours. Then, a cell viability was examined with the MTT assay."}, "[5]": {"test_system": "normal human keratinocytes", "assay": "Differentiation promoting effect in skin keratinocytes (western blot of involucrin and transglutaminase)", "type": "cell-based", "details": "phosphatidylserine 20 and 40 μM, calcium 1.2 mM, clofibrate 200 and 400 μM; 24 hours; FIG. 5", "procedure": "In order to examine a differentiation promoting effect in the skin keratinocytes by the phosphatidylserine of the invention, a following experiment was performed. First, the normal human keratinocytes (a gift from Dong-guk University) cultured in the KSFM (Keratinocyte-SFM; Gibco BRL/Life Technologies, USA) were seeded to the 35 mm^2 cell culture dish in an amount of 1.5×10^5 cells/dish and then cultured for a day. Next day, the culture medium was removed and a new culture medium containing 20 and 40 μM of phosphatidylserine aqueous solution, 1.2 mM calcium aqueous solution and 200 and 400 μM of clofibrate (Sigma, USA) added thereto was added and cultured for 24 hours. Next day, in order to make sure of a differentiation of the keratinocyte, a morphology change of the cell was checked with a phase contrast microscope (Nikon, Japan) and a photograph was taken with a digital camera attached to the microscope. In addition, a western blot was performed to check the protein expression amount of involucrin and transglutaminase, which have been known as a differentiation-marker proteins of the keratinocyte peculiar to the keratin. 500 μl of a lysis buffer having 2% sodium dodecyl sulfate (SDS) added thereto wad added and the cells were collected with a cell scrapper, so that cell lysate only was obtained. […]"}}, "data": [{"smiles": "Cc1cccc(Nc2cc(Cl)nc(SCC(=O)O)n2)c1C", "note": "[WY14643, reference compound]", "values": [{"measurement": "inflammation alleviation (H&E stained ear tissue)", "setting": "[1]", "value": "inflammation was alleviated"}, {"measurement": "inflammatory response increased due to the ultraviolet irradiation (TNF-a, IL-6, IL-1alpha amounts)", "setting": "[2]", "value": "considerably alleviated"}, {"measurement": "protection of skin keratinocytes from ultraviolet injury (cell survival, MTT)", "setting": "[3]", "value": "protected the skin keratinocytes from the ultraviolet injury"}, {"measurement": "inflammation due to the skin stimulating material", "setting": "skin", "value": "decreased"}]}, {"smiles": "Cc1c(C)c2c(c(C)c1O)CC[C@@](C)(CCC[C@H](C)CCC[C@H](C)CCCC(C)C)O2", "note": "[a-tocopherol, reference compound]", "values": [{"measurement": "protection effect from reactive oxygen species (cell viability, MTT)", "setting": "[4]", "value": "exhibited the protection effect"}]}, {"smiles": "O=C1O[C@H]([C@@H](O)CO)C(O)=C1O", "note": "[ascorbic acid, reference compound]", "values": [{"measurement": "protection effect from reactive oxygen species (cell viability, MTT)", "setting": "[4]", "value": "exhibited the protection effect"}]}, {"smiles": "[Ca+2]", "note": "[calcium, reference compound]", "values": [{"measurement": "protein expression of involucrin and transglutaminase", "setting": "[5]", "value": "caused the expressions of the two proteins to be increased"}]}]}
